The values that follow come from patent US4507320A.

pEC50: −log10 of the molar value. Where two headings read alike, the source gives them in different places.

For data set [1], the system named is adenylate cyclase in the caudate nucleus. The conditions noted are these: compared with dopamine; cited from earlier work.
Data set [2] deals with T1, presynaptic dopaminergic (DA2) receptor (Oryctolagus cuniculus, UniProt G1T1Q0). Nature of the data set: stimulation-evoked 3H-norepinephrine release from prelabelled rabbit ear artery (DA2).
Data set [3] addresses T1, presynaptic dopaminergic (DA2) receptor.
Description: (§1) The procedure measures the ability of the test compound to inhibit the constrictor response of isolated perfused rabbit ear artery caused by field stimulation of its adrenergic nerve terminals. Activity in this test is, then, compared with undesired alpha1 -agonist activity which is determined in the superfused rabbit ear artery segment.
The subject of data set [4] is presynaptic dopaminergic (DA2) receptor. Conditions: for vasoconstriction observed during the tests (alpha1-mediated): rabbit ear artery, Compound B at 300 nM in the effector response test.
Description: as §1
In the next data set the test system is alpha1. In words: alpha1-agonist activity in superfused rabbit ear artery segment. The conditions noted are these: read-out: EC50-α1, acid addition salt form.
Another data set has as its system alpha2. In words: alpha2-agonist activity in isolated guinea pig atrial tissue.

T1 sequence (G1T1Q0 1-443): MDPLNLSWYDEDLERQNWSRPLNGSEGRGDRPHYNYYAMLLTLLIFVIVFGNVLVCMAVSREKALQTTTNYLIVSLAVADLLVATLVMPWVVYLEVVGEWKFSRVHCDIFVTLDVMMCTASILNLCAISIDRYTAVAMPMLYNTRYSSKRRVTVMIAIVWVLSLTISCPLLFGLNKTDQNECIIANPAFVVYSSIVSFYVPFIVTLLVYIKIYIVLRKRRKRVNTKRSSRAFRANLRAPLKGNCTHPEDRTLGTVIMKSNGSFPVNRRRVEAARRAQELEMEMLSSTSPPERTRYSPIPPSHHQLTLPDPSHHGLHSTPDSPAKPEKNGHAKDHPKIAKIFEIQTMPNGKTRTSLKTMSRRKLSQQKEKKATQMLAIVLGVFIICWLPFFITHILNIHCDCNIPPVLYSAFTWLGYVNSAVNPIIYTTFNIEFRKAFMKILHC
Description for alpha1: as §1

As to `CS(=O)(=O)Nc1cc(CCN)ccc1O` [3-methylsulfonamido analogue of dopamine], in data set [1], the “agonist activity for adenylate cyclase” value was “weaker than was dopamine itself”.

On to `CCCN(CCC)CCc1ccc(O)c(NS(C)(=O)=O)c1` [Compound A], for which the pEC50 in data set [2] is 8.00; in data set [3], 8.70; in the data set with alpha1, 6.12. For the same compound, the “selectivity for peripheral DA2 receptor sites over alpha1” value in data set [4] (from DA2 EC50 vs alpha1 EC50) is “high selectivity for the desired peripheral DA2 receptor sites”. Also, the “vasoconstriction observed during the tests (alpha1-mediated)” value in data set [4] is reported as “No alpha1 -mediated vasoconstriction was observed”. Further, in the data set on alpha2, the alpha2-agonist activity entry is “no alpha2 -agonist activity”.

Regarding `CS(=O)(=O)Nc1cc(CCN)ccc1O` [Compound B], the figures for the negative logarithm of the EC50 (pEC50) (in data set [2]; in data set [3]; in the data set on alpha1) were 5.52, below 6.52 and 6.45, respectively. Also, in data set [4], the “vasoconstriction observed during the tests (alpha1-mediated)” value is on record as “vasoconstriction was observed”. Further, in the data set on alpha2, the alpha2-agonist activity result is reported as “significant α2 -activity”.

As for `CNCCc1ccc(O)c(NS(C)(=O)=O)c1` [Compound C], the negative-log EC50 (pEC50) is 6.52 in data set [2], below 7.52 in data set [3] and 7.60 in the data set with alpha1. Further, the “vasoconstriction observed during the tests (alpha1-mediated)” value in data set [4] is “demonstrates vasoconstriction as a result of alpha1 -agonist activity”. The alpha2-agonist activity result in the data set on alpha2 is on record as “significant α2 -activity”.

As for `CC(C)NCCc1ccc(O)c(NS(C)(=O)=O)c1` [D], the results for the pEC50 (in data set [3]; in the data set on alpha1) were below 6.00 and 5.70, respectively.

`CCCN(CCC)CCc1ccc(O)c(NS(=O)(=O)C(F)(F)F)c1` [E] showed a negative-log EC50 (pEC50) in data set [3] below 6.00.

The compound `CCCN(CCC)CCc1cccc(NS(C)(=O)=O)c1` [F] showed a pEC50 in data set [3] of 6.40.

`CS(=O)(=O)Nc1cccc(CCN)c1` [G] gave a pEC50 in data set [3] below 6.00.

In general, pEC50 refers to the EC50 on a negative log10 scale, so that one unit is a factor of ten.
